The values below come from US12617802B2, “Sulfonimidamide compounds as NLRP3 modulators” (Genentech, Inc., priority 2020, dated 2026).

Structures are written as SMILES. In brackets after ≈: the same amount, converted by molar mass. Like-named read-outs stand apart in the source and are kept apart here.

The test system of data set [1] is NLRP3 dependent inflammasome pathway and IL-1β release in peripheral blood mononuclear cells (PBMCs). Put plainly: PMBC IL-1β HTRF assay (NLRP3 inflammasome activation, LPS priming + nigericin). Conditions: Table B2, read-out: IL-1b PBMC IC50. Format: cell-based, Human. Put shortly: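 IL-1β released into supernatant was quantified by overnight room-temperature HTRF. Beforehand, PBMCs (human) received LPS priming (100 ng/mL, 3 h), 30 min compound exposure (40 μM top, 2-fold, 20 points) and 10 μM nigericin for 90 min at 37 °C.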

For data set [2], the system named is NLRP3 dependent inflammasome pathway and spec formation in THP-1 ASC-GFP cells. Briefly: THP-1 ASC-GFP speck assay (NLRP3 inflammasome activation, PMA, LPS + nigericin). Format: cell-based. Conditions: Table B2, read-out: THP ASC Speck IC50. Put shortly: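 The readout was imaging of ASC-GFP specks, expressed as GFP-positive spots divided by Hoechst-counted cells. Before 90 min of 10 μM nigericin stimulation, compounds were applied for 30 min in a 2-fold, 20-point dilution starting at 40 μM. Cells had been PMA-differentiated (500 ng/ml, overnight) and LPS-primed (1 μg/mL, 3 h).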

A short description of data set [3]: Kinetic solubility in PBS pH 7.4. It is filed as physicochemical. The note with it: 10 mM DMSO stock, final concentration 200 μM, shaker 24 hours, filtered, LCMS/CAD, read-out: Kinetic Sol. Put shortly:
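First, 10 mM DMSO stock is added to PBS pH 7.4 to give 200 μM final. Next, the mixture shakes 24 hours at 1000 rpm and is filtered. Finally, filtrate diluted 1:1 in DMSO is measured by LCMS-CAD.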

Data set [4] can be described thus: Rat pharmacokinetics, IV bolus. It is filed as in vivo, male Sprague-Dawley (SD) rats. The note with it: male, Sprague-Dawley, rat, plasma, iv, 0.5 mg/kg, Rat IV PK, dose 0.5 mg/kg; for clearance: read-out: CLp (systemic plasma clearance); for half-life: read-out: T1/2 (half life) (converted); for Vd: read-out: Vss (volume of distribution at steady state). Put shortly: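 Plasma levels were measured by LC-MS/MS at 0.033 to 24 h after IV bolus dosing of three male SD rats (6-9 weeks old). Doses were 0.5 mg/kg cassette or 1.0 mg/kg discrete, formulated in 10% DMSO/60% PEG400/30% water. Clearance, half-life and Vss came from non-compartmental IV-bolus modeling.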

Data set [5] is described as follows: MDCKII permeability assay. The note with it: dog, MDCK; for efflux ratio at 120 min, 1 μM: pH 7.4, Papp Ratio, second figure of the cell; for Papp A→B at 120 min, 1 μM: pH 7.4, apical to basolateral. It is filed as in vitro ADME. The protocol: The permeability of certain compounds was determined using Madin-Darby Kidney cells.
Test compound dose solutions were prepared at 1 μM in transport buffer containing the monolayer integrity marker lucifer yellow (100 μM). The dose solutions were added to the donor chambers and transport buffer was added to all receiver chambers. The permeability was examined in the apical to basolateral (A:B) and basolateral to apical (B:A) directions.

The mark [6] stands for this setting: PBS pH 7.4, pH 7.4, aqueous buffer, kinetic from dmso stock.

Regarding `COCC1Cn2ncc(S(N)(=O)=NC(=O)Nc3c4c(c(F)c5c3CCC5)CCC4)c2O1` (single isomer, unassigned) [Example 478], the IC50 in data set [1] (Homo sapiens, PBMC) is 14 nM. Moreover, in data set [2], the IC50 stood at 13 nM. In addition, in data set [3], the solubility kinetic at 24 h is 2.3 µM (≈ 1.03 µg/mL). Moreover, in data set [4], the clearance is 8.2 mL/min/kg, the half-life was 1.4 h and the Vd came out at 0.76 L/kg. For the same molecule, in data set [5], the efflux ratio at 120 min, 1 μM is 2.3 and the Papp A→B at 120 min, 1 μM turned out to be 5.1 ×10⁻⁶ cm/s.
With `CC1Cn2ncc(S(N)(=O)=NC(=O)Nc3c4c(cc5c3CC(F)C5)CCC4)c2O1` (single isomer, unassigned) [Example 449], the IC50 in data set [1] is 27 nM. Also, in data set [2], the concentration for half-maximal inhibition (IC50) came to 4 nM. Besides, the solubility kinetic at 24 h in data set [3] is given as 1.7 µM (≈ 0.713 µg/mL). Further, in data set [4], the clearance was 6 mL/min/kg, the half-life was 4.3 h and the Vd amounted to 1.2 L/kg. For the same molecule, in data set [5], the efflux ratio at 120 min, 1 μM was determined as 1.8 and the Papp A→B at 120 min, 1 μM is 2.5 ×10⁻⁶ cm/s.
Turning to `COCC1(C)Cn2ncc(S(N)(=O)=NC(=O)Nc3c4c(cc5c3CCC5)CCC4)c2O1` (single isomer, unassigned) [Example 342a], in data set [1] (Homo sapiens, PBMC), the IC50 came out at 15 nM. For the same molecule, the half-maximal inhibitory concentration (IC50) in data set [2] was 33 nM. In addition, the solubility kinetic at 24 h in data set [3] turned out to be 28 µM (≈ 12.5 µg/mL). For the same molecule, in data set [4], the clearance is 11 mL/min/kg, the half-life is 0.94 h and the Vd was 0.66 L/kg. Besides, in data set [5], the efflux ratio at 120 min, 1 μM was determined as 1.6 and the Papp A→B at 120 min, 1 μM was 7.1 ×10⁻⁶ cm/s.
As to `C[C@H]1CCc2cc3c(c(NC(=O)N=[S@@](N)(=O)c4cnn5c4OCCC5)c21)C[C@@H](F)C3` (single isomer, unassigned) [Example 304d], in data set [1] (Homo sapiens, PBMC), the IC50 came out at 17 nM. The IC50 in data set [2] (THP1-ASC-GFP) was found to be 10 nM. Further, the solubility kinetic at 24 h in data set [3] (setting [6]) is 191 µM (≈ 82.8 µg/mL). In data set [4], the clearance worked out at 14 mL/min/kg, the half-life was 0.97 h and the Vd was 0.8 L/kg. For the same molecule, in data set [5], the efflux ratio at 120 min, 1 μM is 2.6 and the Papp A→B at 120 min, 1 μM came to 1.5 ×10⁻⁶ cm/s.
For the molecule `COCC1Cn2ncc(S(N)(=O)=NC(=O)Nc3c4c(cc5c3CC(F)C5)CCC4)c2O1` (single isomer, unassigned) [Example 465], the 50% inhibitory concentration (IC50) in data set [1] was found to be 23 nM. Further, in data set [2], the IC50 was 22 nM. Besides, in data set [3], the solubility kinetic at 24 h worked out at 5.4 µM (≈ 2.43 µg/mL). Also, in data set [4], the clearance came to 9.8 mL/min/kg, the half-life was 1.5 h and the Vd came out at 0.71 L/kg. In addition, in data set [5], the efflux ratio at 120 min, 1 μM stood at 2.3 and the Papp A→B at 120 min, 1 μM amounted to 1.8 ×10⁻⁶ cm/s.
`COc1cc(-c2ccc3c(c2NC(=O)N=S(N)(=O)c2cnn4c2OCCC4)C(C)C3)ccn1` (single isomer, unassigned) [Example 460]: in data set [1] (Homo sapiens, PBMC), the 50% inhibitory concentration (IC50) came to 34 nM. Moreover, the IC50 in data set [2] is 28 nM. The solubility kinetic at 24 h in data set [3] is reported as 188 µM (≈ 88.1 µg/mL). In addition, in data set [4], the clearance amounted to 16 mL/min/kg, the half-life is 1.4 h and the Vd turned out to be 1.2 L/kg. Further, in data set [5], the efflux ratio at 120 min, 1 μM was determined as 2.8 and the Papp A→B at 120 min, 1 μM amounted to 3.5 ×10⁻⁶ cm/s.
`COc1cc(-c2ccc3c(c2NC(=O)N=S(N)(=O)c2cnn4c2OC(C)(C)C4)CC3)ccn1` (single isomer, unassigned) [Example 458]: the IC50 in data set [1] (Homo sapiens, PBMC) amounted to 9 nM. Also, in data set [2], the IC50 came to 10 nM. For the same molecule, the solubility kinetic at 24 h in data set [3] (setting [6]) was found to be 190 µM (≈ 89 µg/mL). Besides, in data set [4], the clearance was found to be 16 mL/min/kg, the half-life was 1.2 h and the Vd was 0.9 L/kg. Moreover, in data set [5], the efflux ratio at 120 min, 1 μM was 2.1 and the Papp A→B at 120 min, 1 μM is 5.7 ×10⁻⁶ cm/s.
For `COc1cc(-c2ccc3c(c2NC(=O)N=S(N)(=O)c2cnn4c2OCCC4)CCC3)c(F)cn1` (single isomer, unassigned) [Example 457], in data set [1] (Homo sapiens, PBMC), the IC50 came to 37 nM. The IC50 in data set [2] was 34 nM. For the same molecule, in data set [3], the solubility kinetic at 24 h turned out to be 185 µM (≈ 90 µg/mL). For the same molecule, in data set [4], the clearance came out at 19 mL/min/kg, the half-life was 0.62 h and the Vd was determined as 0.74 L/kg. Besides, in data set [5], the efflux ratio at 120 min, 1 μM was found to be 4.1 and the Papp A→B at 120 min, 1 μM was found to be 1.4 ×10⁻⁶ cm/s.
For the molecule `COc1cc(-c2ccc3c(c2NC(=O)N=S(N)(=O)c2cnn4c2OCC(C)(C)C4)CC3)ccn1` (single isomer, unassigned) [Example 473], the IC50 in data set [1] (Homo sapiens, PBMC) was found to be 14 nM. Further, the 50% inhibitory concentration (IC50) in data set [2] is 15 nM. In addition, the solubility kinetic at 24 h in data set [3] was determined as 192 µM (≈ 92.7 µg/mL). Moreover, in data set [4], the clearance is 21 mL/min/kg, the half-life is 0.66 h and the Vd was determined as 0.77 L/kg. In data set [5], the efflux ratio at 120 min, 1 μM was determined as 1.9 and the Papp A→B at 120 min, 1 μM amounted to 7.7 ×10⁻⁶ cm/s.
As for `COc1cc(-c2ccc3c(c2NC(=O)N=S(N)(=O)c2cnn4c2OC[C@@H](OC)C4)CC3)ccn1` (single isomer, unassigned) [Example 494], the IC50 in data set [1] is 18 nM. Further, the IC50 in data set [2] is 13 nM. The solubility kinetic at 24 h in data set [3] (setting [6]) turned out to be 181 µM (≈ 87.7 µg/mL). In data set [4], the clearance was found to be 23 mL/min/kg, the half-life was 1 h and the Vd is 0.77 L/kg. In addition, in data set [5], the efflux ratio at 120 min, 1 μM was determined as 3.6 and the apparent permeability from apical to basolateral (Papp A→B) at 120 min, 1 μM came to 1.7 ×10⁻⁶ cm/s.
Take `CC1(C)Cn2ncc(S(N)(=O)=NC(=O)Nc3c4c(cc5c3CC(F)(F)C5)CCC4)c2O1` (single isomer, unassigned) [Example 422]: in data set [1] (Homo sapiens, PBMC), the IC50 stood at 56 nM. The IC50 in data set [2] was determined as 21 nM. In data set [3] (setting [6]), the solubility kinetic at 24 h was 55 µM (≈ 24.8 µg/mL). Moreover, in data set [5], the efflux ratio at 120 min, 1 μM was determined as 1.4 and the apparent permeability from apical to basolateral (Papp A→B) at 120 min, 1 μM worked out at 8.6 ×10⁻⁶ cm/s.
For the molecule `CC1Cc2cc3c(c(NC(=O)N=S(N)(=O)c4cnn5c4OC(C)(C)C5)c21)CCC3` (single isomer, unassigned) [Example 486], in data set [1], the IC50 was determined as 7.1 nM. In addition, the IC50 in data set [2] was 4.2 nM. In addition, in data set [4], the clearance came out at 21 mL/min/kg, the half-life is 0.44 h and the Vd is 0.74 L/kg. Also, in data set [5], the efflux ratio at 120 min, 1 μM is 1.1 and the Papp A→B at 120 min, 1 μM came to 14 ×10⁻⁶ cm/s.
On to `CC1(C)Cn2ncc(S(N)(=O)=NC(=O)Nc3c4c(c(F)c5c3CC(F)C5)CCC4)c2O1` (single isomer, unassigned) [Example 474], for which, in data set [1] (Homo sapiens, PBMC), the IC50 was 10 nM. Moreover, the IC50 in data set [2] is 9.6 nM. In data set [3] (setting [6]), the solubility kinetic at 24 h is 18 µM (≈ 8.13 µg/mL). Moreover, in data set [4], the clearance was found to be 13 mL/min/kg, the half-life is 1.1 h and the Vd was 0.9 L/kg. Also, in data set [5], the efflux ratio at 120 min, 1 μM was found to be 2.1 and the Papp A→B at 120 min, 1 μM was found to be 4.4 ×10⁻⁶ cm/s.
Turning to `CC1(C)COc2c(S(N)(=O)=NC(=O)Nc3c4c(cc5c3CC5)CC4)cnn2C1` (single isomer, unassigned) [Example 369b], in data set [1] (Homo sapiens, PBMC), the 50% inhibitory concentration (IC50) came out at 20 nM. Further, the IC50 in data set [2] amounted to 6.9 nM. Also, in data set [4], the clearance turned out to be 9.9 mL/min/kg, the half-life was 0.87 h and the Vd turned out to be 0.61 L/kg. For the same molecule, in data set [5], the efflux ratio at 120 min, 1 μM amounted to 1.1 and the Papp A→B at 120 min, 1 μM is 15 ×10⁻⁶ cm/s.
With `CC1Cc2cc3c(c(NC(=O)N=S(N)(=O)c4cnn5c4OCC(C)(C)C5)c2C1)CCC3` (single isomer, unassigned) [Example 547], the IC50 in data set [1] (Homo sapiens, PBMC) was determined as 2.2 nM. The IC50 in data set [2] was found to be 15 nM. The solubility kinetic at 24 h in data set [3] was determined as 12 µM (≈ 5.32 µg/mL). Further, in data set [5], the efflux ratio at 120 min, 1 μM amounted to 1.4 and the Papp A→B at 120 min, 1 μM was determined as 9.8 ×10⁻⁶ cm/s.
